Measurements published in patent publication US20240391931A1 (Bristol-Myers Squibb Company, priority 2021, published 2024).

Experiments:
HER2 WT = biological target: T1, HER2 WT (Homo sapiens, UniProt P04626); assay: Enzymatic assay HER2 WT (method a); type: biochemical; conditions: [HER2 WT]=12.5 nM, [ATP]=25 μM, [Peptide 22]=1 μM
T1 construct: purchased ProQinase, Freiburg, Germany ERBB2 0108-0000-1
Protocol: (§1) A 2× stock solution of HER2 WT (ERBB2 0108-0000-1; ProQinase, Freiburg, Germany) corresponding to method a, was prepared as described below. Alternatively, a 2× stock solution of HER2YVMA (custom purification; Viva biotech, Shanghai, China) corresponding to method b, was prepared as described below. For method c, a 2× stock of EGFR (ERBB1 PR7295B, Thermo Fisher, Carlsbad, CA) was prepared as described below. All 2× solutions were prepared in buffer containing 50 mM HEPES, pH 7.5, 10 mM MnCl2, MgCl2, 0.005% Tween 20, 1 mM TCEP. 25 ul of 2× enzyme solution was added to a Seahorse low volume 384-well polypropylene assay plate (201288-100, Seahorse Bioscience, Chicopee, MA) containing 1 μl of compound serially diluted in 50% DMSO. To initiate the reaction, 25 μl of solution containing 2× final concentration of ATP and ProfilerPro Peptide 22 (760366, Perkin Elmer Hopkinton, MA) was added to each well. The reactions were separated on an LC3000 (Caliper Life Sciences) or a LabChip EZReader (Perkin Elmer) in kinetic mode.
(§2) At the conclusion of each assay, the data were exported from the instrument as a .rda file (LC3000) and processed in proprietary software, EZReviewer, which determines the percent of substrate converted to product within a given cycle as (P/P+S)*100 by measuring the amplitude of substrate and product peaks. Cycle time varied with amount of compounds tested between 8 and 12 cycles. Initial velocity (0-3600 s) from each reaction was determined from the slope of a plot of percent conversion at each cycle versus time (seconds). Percent inhibition was determined by dividing the slope of each reaction by the uninhibited control using 100*(1-(x/uninhibited control)). IC50 estimates were obtained by plotting the concentration of inhibitor versus percent inhibition in GraphPad Prism (GraphPad Software, San Diego, CA) using log[inhibitor] versus Response (Variable Slope Model); Y=Min+((Max-Min)/(1+((IC50/x)^Hillslope)))
(§3) • a) [HER2 WT]=12.5 nM, [ATP]=25 μM, [Peptide 22]=1 μM (ATP KMapp˜25 μM) • b) [HER2YVMA]=5 nM, [ATP]=25 μM, [Peptide 22]=1 μM (ATP KMapp˜15 μM) • c) [EGFR WT]=2 nM, [ATP]=1 mM, [Peptide 22]=1 μM (ATP KMapp˜25 μM)

EGFR WT = biological target: T2, EGFR WT (Homo sapiens, UniProt P00533); assay: Enzymatic assay EGFR WT (method c); type: biochemical; conditions: [EGFR WT]=2 nM, [ATP]=1 mM, [Peptide 22]=1 μM
T2 construct: purchased Thermo Fisher, Carlsbad, CA ERBB1 PR7295B
Protocol: as §1, §2, §3

T2 sequence (P00533 25-1210): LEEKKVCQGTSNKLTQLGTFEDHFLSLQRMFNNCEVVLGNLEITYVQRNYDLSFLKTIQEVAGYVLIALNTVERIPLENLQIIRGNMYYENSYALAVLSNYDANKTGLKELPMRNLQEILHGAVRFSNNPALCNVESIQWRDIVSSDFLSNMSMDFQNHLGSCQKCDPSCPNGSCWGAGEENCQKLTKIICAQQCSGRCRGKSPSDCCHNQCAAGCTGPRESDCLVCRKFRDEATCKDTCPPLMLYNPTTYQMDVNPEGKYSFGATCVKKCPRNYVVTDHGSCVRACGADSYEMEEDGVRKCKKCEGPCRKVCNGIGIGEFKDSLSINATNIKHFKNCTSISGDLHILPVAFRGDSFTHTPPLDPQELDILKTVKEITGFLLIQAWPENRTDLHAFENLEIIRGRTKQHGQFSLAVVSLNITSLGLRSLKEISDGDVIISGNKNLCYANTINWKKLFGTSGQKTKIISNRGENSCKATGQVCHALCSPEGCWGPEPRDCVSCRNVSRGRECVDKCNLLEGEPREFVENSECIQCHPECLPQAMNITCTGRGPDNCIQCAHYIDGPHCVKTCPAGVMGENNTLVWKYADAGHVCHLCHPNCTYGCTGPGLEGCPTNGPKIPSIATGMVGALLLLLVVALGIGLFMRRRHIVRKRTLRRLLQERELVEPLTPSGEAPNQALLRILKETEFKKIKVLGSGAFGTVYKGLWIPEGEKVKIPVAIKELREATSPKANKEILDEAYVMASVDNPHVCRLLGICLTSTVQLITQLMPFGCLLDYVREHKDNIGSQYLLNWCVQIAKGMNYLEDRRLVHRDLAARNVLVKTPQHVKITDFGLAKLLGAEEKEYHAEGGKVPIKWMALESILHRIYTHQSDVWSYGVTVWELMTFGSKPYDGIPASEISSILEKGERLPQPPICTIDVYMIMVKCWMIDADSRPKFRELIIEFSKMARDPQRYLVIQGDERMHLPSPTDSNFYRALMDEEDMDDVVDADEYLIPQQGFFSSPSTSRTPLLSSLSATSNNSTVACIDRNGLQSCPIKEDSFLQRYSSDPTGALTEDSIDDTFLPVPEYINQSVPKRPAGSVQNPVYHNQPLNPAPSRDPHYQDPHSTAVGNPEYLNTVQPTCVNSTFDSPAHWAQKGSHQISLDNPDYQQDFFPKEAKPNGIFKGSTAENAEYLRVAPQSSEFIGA
T1 sequence (P04626 23-1255): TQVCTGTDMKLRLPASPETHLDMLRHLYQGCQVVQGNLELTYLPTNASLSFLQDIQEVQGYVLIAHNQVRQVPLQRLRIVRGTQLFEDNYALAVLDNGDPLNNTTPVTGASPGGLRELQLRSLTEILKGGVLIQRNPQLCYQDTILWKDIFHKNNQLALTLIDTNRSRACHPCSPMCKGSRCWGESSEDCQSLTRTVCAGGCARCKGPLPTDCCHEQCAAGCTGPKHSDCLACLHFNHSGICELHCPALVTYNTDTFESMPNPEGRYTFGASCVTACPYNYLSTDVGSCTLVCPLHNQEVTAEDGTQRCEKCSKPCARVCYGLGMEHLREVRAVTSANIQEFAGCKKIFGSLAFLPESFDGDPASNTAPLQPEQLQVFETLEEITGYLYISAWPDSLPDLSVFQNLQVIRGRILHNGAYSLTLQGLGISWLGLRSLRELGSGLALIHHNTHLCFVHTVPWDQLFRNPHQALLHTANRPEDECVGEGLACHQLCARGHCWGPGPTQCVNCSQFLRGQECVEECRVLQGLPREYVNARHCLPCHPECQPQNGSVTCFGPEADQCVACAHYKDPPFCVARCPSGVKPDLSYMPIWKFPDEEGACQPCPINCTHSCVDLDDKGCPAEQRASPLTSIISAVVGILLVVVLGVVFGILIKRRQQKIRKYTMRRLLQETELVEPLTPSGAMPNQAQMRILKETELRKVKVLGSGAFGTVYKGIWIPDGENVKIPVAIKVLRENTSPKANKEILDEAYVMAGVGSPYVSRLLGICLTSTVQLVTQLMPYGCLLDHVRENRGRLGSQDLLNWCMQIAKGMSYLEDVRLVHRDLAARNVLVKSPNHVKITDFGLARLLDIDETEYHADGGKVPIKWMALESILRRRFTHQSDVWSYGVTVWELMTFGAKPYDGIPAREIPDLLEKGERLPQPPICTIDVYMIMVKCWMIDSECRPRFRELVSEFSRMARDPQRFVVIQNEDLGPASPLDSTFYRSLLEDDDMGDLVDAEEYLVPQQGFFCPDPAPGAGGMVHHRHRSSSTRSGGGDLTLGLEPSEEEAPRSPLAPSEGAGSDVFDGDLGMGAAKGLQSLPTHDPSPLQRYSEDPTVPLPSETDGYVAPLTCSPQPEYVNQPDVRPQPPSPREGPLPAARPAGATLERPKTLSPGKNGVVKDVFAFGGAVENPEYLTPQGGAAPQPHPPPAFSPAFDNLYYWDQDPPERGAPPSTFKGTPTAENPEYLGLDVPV

| SMILES | IC50 (HER2 WT) [nM] | IC50 (EGFR WT) [nM] |
| --- | --- | --- |
| Cc1ccc(Oc2ccc(Nc3ncnc4sc5c(c34)CC(C)N(C(=O)C=CCN(C)C)C5C)cc2C)cn1 (single isomer, unassigned) [Compound 162] | 1000 to 10000 | > 10000 |
| Cc1cn2ccc(Oc3ccc(Nc4ncnc5sc6c(c45)CCN(C(=O)/C=C/CN(C)C)C6)cc3C)cc2n1 [Compound 110, (E)-4-(dimethylamino)-1-(4-((3-methyl-4-((2-methylimidazo[1,2-a]pyridin-7-yl)oxy)phenyl)amino)-5,8-dihydropyrido[4′,3′:4,5]thieno[2,3-d]pyrimidin-7(6H)-yl)but-2-en-1-one] | 100 to 1000 | > 10000 |
| Cc1ccc(Oc2ccc(Nc3ncnc4sc5c(c34)C(C)CN(C(=O)C=CCN(C)C(C)(C)C)C5)cc2C)cn1 (single isomer, unassigned) [Compound 178] | 100 to 1000 | > 10000 |
| Cc1ccc(Oc2ccc(Nc3ncnc4sc5c(c34)CCN(C(=O)/C=C/CN3CC(C)(C)OC(C)(C)C3)C5)cc2C)cn1 [Compound 121] | 1000 to 10000 | > 10000 |
| Cc1ccc(Oc2ccc(Nc3ncnc4sc5c(c34)CCN(C(=O)/C=C/CN(C)C)CC5)cc2Cl)cn1 [Compound 167, (E)-1-(4-((3-Chloro-4-((6-methylpyridin-3-yl)oxy)phenyl)amino)-8,9-dihydro-5H-pyrimido[5′,4′:4,5]thieno[2,3-d]azepin-7(6H)-yl)-4-(dimethylamino)but-2-en-1-one] | 100 to 1000 | > 10000 |
| C=CC(=O)N1Cc2sc3ncnc(Nc4ccc(Oc5ccc(C)nc5)c(C)c4)c3c2C(C)C1 (stereo not shown) [Compound 142, 1-(5-methyl-4-((3-methyl-4-((6-methylpyridin-3-yl)oxy)phenyl)amino)-5,6-dihydropyrido[4′,3′:4,5]thieno[2,3-d]pyrimidin-7(8H)-yl)prop-2-en-1-one] | < 100 | 1000 to 10000 |
| Cc1ccc(Oc2ccc(Nc3ncnc4sc5c(c34)CCN(C(=O)/C=C/CN3CCO[C@@H](CO)C3)C5)cc2C)cn1 [Compound 144] | < 100 | > 10000 |
| CCN(CC)C/C=C/C(=O)N1CCc2c(sc3ncnc(Nc4ccc(Oc5ccc(C)nc5)c(C)c4)c23)C1 [Compound 131] | < 100 | 1000 to 10000 |
| Cc1ccc(Oc2ccc(Nc3ncnc4sc5c(c34)CCN(C(=O)/C=C/CN3C[C@H]4C[C@@H]3CC4C#N)C5)cc2C)cn1 (stereo partly shown) [Compound 120] | < 100 | > 10000 |
| Cc1ccc(Oc2ccc(Nc3ncnc4sc5c(c34)CCN(C(=O)/C=C/CN3CC4(CCCC4)C3)C5)cc2C)cn1 [Compound 123] | < 100 | > 10000 |
| CC[C@H](NC/C=C/C(=O)N1CCc2c(sc3ncnc(Nc4ccc(Oc5ccc(C)nc5)c(C)c4)c23)C1)C(F)(F)F [Compound 122] | < 100 | > 10000 |
| Cc1ccc(Oc2ccc(Nc3ncnc4sc5c(c34)CCN(C(=O)/C=C/CN3CC4CCC3C4)C5)cc2C)cn1 (stereo not shown) [Compound 14] | < 100 | > 10000 |
| Cc1ccc(Oc2ccc(Nc3ncnc4sc5c(c34)C(C)CN(C(=O)/C=C/CN(C)C(C)(C)C)C5)cc2C)cn1 (stereo not shown) [Compound 175] | < 100 | > 10000 |
| Cc1ccc(Oc2ccc(Nc3ncnc4sc5c(c34)CCN(C(=O)/C=C/CN3CC(C)OC(C)C3C)C5)cc2C)cn1 (stereo not shown) [Compound 117] | < 100 | > 10000 |
| C=CC(=O)N1[C@H](C)Cc2c(sc3ncnc(Nc4ccc(Oc5ccc(C)nc5)c(C)c4)c23)[C@H]1C (racemic) [Compound 166, 1-(6,8-trans-dimethyl-4-((3-methyl-4-((6-methylpyridin-3-yl)oxy)phenyl)amino)-5,8-dihydropyrido[4′,3′:4,5]thieno[2,3-d]pyrimidin-7(6H)-yl)prop-2-en-1-one] | 100 to 1000 | > 10000 |
| Cc1ccc(Oc2ccc(Nc3ncnc4sc5c(c34)C(C)CN(C(=O)C=CCN(C)C(C)(C)C)C5)cc2C)cn1 (single isomer, unassigned) [Compound 179] | < 100 | > 10000 |
| Cc1ccc(Oc2ccc(Nc3ncnc4sc5c(c34)C(C)CN(C(=O)C=CCN3CCOCC3)C5)cc2C)cn1 (single isomer, unassigned) [Compound 176] | 100 to 1000 | > 10000 |
| Cc1ccc(Oc2ccc(Nc3ncnc4sc5c(c34)C(C)CN(C(=O)C=CCN3CCOCC3)C5)cc2C)cn1 (single isomer, unassigned) [Compound 177] | < 100 | > 10000 |
| Cc1ccc(Oc2ccc(Nc3ncnc4sc5c(c34)CCN(C(=O)/C=C/CN3CCCC(F)(CO)C3)C5)cc2C)cn1 (stereo not shown) [Compound 150] | < 100 | 1000 to 10000 |

More lines, now with the values ahead:

| IC50 (HER2 WT) [nM] | IC50 (EGFR WT) [nM] | SMILES |
| --- | --- | --- |
| < 100 | > 10000 | Cc1cc(Nc2ncnc3sc4c(c23)CCN(C(=O)/C=C/CN(C)C)CC4)ccc1Oc1ccn2ncnc2c1 [Compound 168] |
| < 100 | 1000 to 10000 | Cc1ccc(Oc2ccc(Nc3ncnc4sc5c(c34)CCN(C(=O)/C=C/CN3CC(CO)(CO)C3)C5)cc2C)cn1 [Compound 134] |
| < 100 | > 10000 | Cc1ccc(Oc2ccc(Nc3ncnc4sc5c(c34)C(C)CN(C(=O)/C=C/CN(C)C)C5)cc2Cl)cn1 (stereo not shown) [Compound 171, (E)-1-(4-((3-Chloro-4-((6-methylpyridin-3-yl)oxy)phenyl)amino)-5-methyl-5,6-dihydropyrido[4′,3′:4,5]thieno[2,3-d]pyrimidin-7(8H)-yl)-4-(dimethylamino)but-2-en-1-one] |
| < 100 | > 10000 | Cc1ccc(Oc2ccc(Nc3ncnc4sc5c(c34)CCN(C(=O)/C=C/CN3CCCCC3(C)CO)C5)cc2C)cn1 (stereo not shown) [Compound 119] |
| < 100 | > 10000 | Cc1cc(Nc2ncnc3sc4c(c23)CN(C(=O)/C=C/CN(C)C)C4)ccc1Oc1ccc2ncnn2c1 [Compound 111, (E)-1-(4-((4-([1,2,4]Triazolo[1,5-a]pyridin-6-yloxy)-3-methylphenyl)amino)-5H-pyrrolo[3′,4′:4,5]thieno[2,3-d]pyrimidin-6(7H)-yl)-4-(dimethylamino)but-2-en-1-one] |
| < 100 | > 10000 | Cc1ccc(Oc2ccc(Nc3ncnc4sc5c(c34)CCN(C(=O)/C=C/CN3CCCC(c4nccs4)C3)C5)cc2C)cn1 (stereo not shown) [Compound 113] |
| < 100 | > 10000 | Cc1ccc(Oc2ccc(Nc3ncnc4sc5c(c34)CCN(C(=O)/C=C/CN3CCCC34CCC4)C5)cc2C)cn1 [Compound 115] |
| < 100 | > 10000 | Cc1ccc(Oc2ccc(Nc3ncnc4sc5c(c34)C(C)N(C(=O)/C=C/CN(C)C)C5)cc2C)cn1 (stereo not shown) [Compound 141, (E)-4-(dimethylamino)-1-(5-methyl-4-((3-methyl-4-((6-methylpyridin-3-yl)oxy)phenyl)amino)-5,7-dihydro-6H-pyrrolo[3′,4′:4,5]thieno[2,3-d]pyrimidin-6-yl)but-2-en-1-one] |
| < 100 | 1000 to 10000 | Cc1cc(Nc2ncnc3sc4c(c23)CCN(C(=O)/C=C/CN(C)C)C4)ccc1Oc1ccc2scnc2c1 [Compound 107, (E)-1-(4-((4-(benzo[d]thiazol-5-yloxy)-3-methylphenyl)amino)-5,8-dihydropyrido[4′,3′:4,5]thieno[2,3-d]pyrimidin-7(6H)-yl)-4-(dimethylamino)but-2-en-1-one] |
| < 100 | > 10000 | COc1ccc(Oc2ccc(Nc3ncnc4sc5c(c34)CCN(C(=O)/C=C/CN(C)C(C)(C)C)C5)cc2C)cn1 [Compound 163] |
